Values after ≈ are worked out from the molar mass of the structure shown.
Assays:
Format in all cases: functional
[1] = test system: Staphylococcus epidermidis; assay: Antibacterial activity against methicillin-resistant Staphylococcus epidermidis clinical isolate 202409454 assessed as bacterial growth inhibition measured after 20 hrs by broth dilution method
Streptococcus pneumoniae [2] = assay: Ratio of MBC to MIC against penicillin-intermediate Streptococcus pneumoniae ATCC 49619
[3] = test system: Staphylococcus epidermidis; assay: Antibacterial activity against methicillin-resistant Staphylococcus epidermidis clinical isolate 202409139 assessed as bacterial growth inhibition measured after 20 hrs by broth dilution method
[4] = test system: Staphylococcus epidermidis; assay: Ratio of MBC to MIC against methicillin-resistant Staphylococcus epidermidis clinical isolate 202409139
Staphylococcus aureus [5] = assay: Antibacterial activity against methicillin-resistant Staphylococcus aureus clinical isolate 202313160 assessed as bacterial growth inhibition measured after 20 hrs by broth dilution method
Staphylococcus aureus [6] = assay: Ratio of MBC to MIC against methicillin-resistant Staphylococcus aureus clinical isolate 202311772
Streptococcus pneumoniae [7] = assay: Antibacterial activity against penicillin-intermediate Streptococcus pneumoniae ATCC 49619 assessed as bacterial growth inhibition measured after 20 hrs by broth dilution method
[8] = test system: Staphylococcus epidermidis; assay: Ratio of MBC to MIC against Staphylococcus epidermidis ATCC 51625
Staphylococcus aureus [9] = assay: Antibacterial activity against methicillin-resistant Staphylococcus aureus ATCC 33591 assessed as bacterial growth inhibition measured after 20 hrs by broth dilution method
Staphylococcus aureus [10] = assay: Ratio of MBC to MIC against methicillin-resistant Staphylococcus aureus ATCC 33591
Enterococcus faecium [11] = assay: Antibacterial activity against vancomycin-resistant Enterococcus faecium ATCC 700221 assessed as bacterial growth inhibition measured after 20 hrs by broth dilution method
Enterococcus faecium [12] = assay: Antibacterial activity against vancomycin-resistant Enterococcus faecium clinical isolate 202308456 assessed as bacterial growth inhibition measured after 20 hrs by broth dilution method
Staphylococcus aureus [13] = assay: Antibacterial activity against methicillin-resistant Staphylococcus aureus ATCC 43300 assessed as bacterial growth inhibition measured after 20 hrs by broth dilution method
Enterococcus faecium [14] = assay: Ratio of MBC to MIC against vancomycin-resistant Enterococcus faecium ATCC 700221
Enterococcus faecium [15] = assay: Ratio of MBC to MIC against vancomycin-resistant Enterococcus faecium ATCC 51559
Streptococcus pneumoniae [16] = assay: Ratio of MBC to MIC against penicillin-resistant Streptococcus pneumoniae ATCC 51916
Enterococcus faecium [17] = assay: Antibacterial activity against vancomycin-resistant Enterococcus faecium ATCC 51559 assessed as bacterial growth inhibition measured after 20 hrs by broth dilution method
Staphylococcus aureus [18] = assay: Ratio of MBC to MIC against Staphylococcus aureus ATCC 43300
Staphylococcus aureus [19] = assay: Ratio of MBC to MIC against methicillin-resistant Staphylococcus aureus clinical isolate 202313160
[20] = test system: Staphylococcus epidermidis; assay: Antibacterial activity against Staphylococcus epidermidis ATCC 51625 assessed as bacterial growth inhibition measured after 20 hrs by broth dilution method
Staphylococcus aureus [21] = assay: Antibacterial activity against methicillin-resistant Staphylococcus aureus clinical isolate 202405157 assessed as bacterial growth inhibition measured after 20 hrs by broth dilution method
Enterococcus faecium [22] = assay: Ratio of MBC to MIC against vancomycin-resistant Enterococcus faecium clinical isolate 202308456
Streptococcus pneumoniae [23] = assay: Antibacterial activity against penicillin-resistant Streptococcus pneumoniae ATCC 51916 assessed as bacterial growth inhibition measured after 20 hrs by broth dilution method
Staphylococcus aureus [24] = assay: Antibacterial activity against methicillin-resistant Staphylococcus aureus clinical isolate 202311772 assessed as bacterial growth inhibition measured after 20 hrs by broth dilution method
Staphylococcus aureus [25] = assay: Ratio of MBC to MIC against methicillin-resistant Staphylococcus aureus clinical isolate 202405157
[26] = test system: Staphylococcus epidermidis; assay: Ratio of MBC to MIC against methicillin-resistant Staphylococcus epidermidis clinical isolate 202409454

| SMILES | MIC [1] [µg/mL] | Ratio (Streptococcus pneumoniae [2]) | MIC [3] [µg/mL] | MIC (Staphylococcus aureus [5]) [µg/mL] | MIC (Streptococcus pneumoniae [7]) [µg/mL] | Ratio [8] | MIC (Staphylococcus aureus [9]) [µg/mL] | MIC (Enterococcus faecium [11]) [µg/mL] | MIC (Enterococcus faecium [12]) [µg/mL] | MIC (Staphylococcus aureus [13]) [µg/mL] | Ratio (Enterococcus faecium [14]) | Ratio (Enterococcus faecium [15]) | MIC (Enterococcus faecium [17]) [µg/mL] | Ratio (Staphylococcus aureus [18]) | MIC [20] [µg/mL] | MIC (Staphylococcus aureus [21]) [µg/mL] | Ratio (Enterococcus faecium [22]) | MIC (Streptococcus pneumoniae [23]) [µg/mL] | MIC (Staphylococcus aureus [24]) [µg/mL] | Ratio [26] | also measured |
| --- | --- | --- | --- | --- | --- | --- | --- | --- | --- | --- | --- | --- | --- | --- | --- | --- | --- | --- | --- | --- | --- |
| C=C[C@]1(C)C[C@@H](OC(=O)CO)[C@]2(C)[C@H](C)CC[C@]3(CCC(=O)[C@H]32)[C@@H](C)[C@@H]1O [PLEUROMULIN] | 0.25 (≈ 0.66 µM) | 2 | 0.25 (≈ 0.66 µM) | 0.5 (≈ 1.32 µM) | 2 (≈ 5.28 µM) | >4 | 0.5 (≈ 1.32 µM) | 0.5 (≈ 1.32 µM) | 0.5 (≈ 1.32 µM) | 1 (≈ 2.64 µM) | >4 | 2 | 2 (≈ 5.28 µM) | 2 | 1 (≈ 2.64 µM) | 0.5 (≈ 1.32 µM) | 2 | 4 (≈ 10.6 µM) | 0.25 (≈ 0.66 µM) |  | Ratio [4]: 4; Ratio (Staphylococcus aureus [6]): >4; Ratio (Staphylococcus aureus [10]): 4; Ratio (Streptococcus pneumoniae [16]): 4; Ratio (Staphylococcus aureus [19]): >4 |
| C=C[C@]1(C)C[C@@H](OC(=O)CSc2cc(=O)oc3cc(C)ccc23)[C@]2(C)[C@H](C)CC[C@]3(CCC(=O)[C@H]32)[C@@H](C)[C@@H]1O | 0.063 (≈ 0.114 µM) | >4 | 0.125 (≈ 0.226 µM) | 0.125 (≈ 0.226 µM) | 0.063 (≈ 0.114 µM) | >4 | 0.031 (≈ 0.0561 µM) | 0.031 (≈ 0.0561 µM) | 0.063 (≈ 0.114 µM) | 0.063 (≈ 0.114 µM) | 2 | 2 | 0.063 (≈ 0.114 µM) | 2 | 0.016 (≈ 0.0289 µM) | 0.125 (≈ 0.226 µM) | 2 |  | 0.031 (≈ 0.0561 µM) |  | Ratio (Staphylococcus aureus [25]): 4; Ratio (Staphylococcus aureus [10]): >4; Ratio (Staphylococcus aureus [19]): 4 |
| C=C[C@]1(C)C[C@@H](OC(=O)CSCCOc2cc(=O)oc3cc(OC)ccc23)[C@]2(C)[C@H](C)CC[C@]3(CCC(=O)[C@H]32)[C@@H](C)[C@@H]1O | 0.25 (≈ 0.408 µM) | >4 | 0.125 (≈ 0.204 µM) | 0.125 (≈ 0.204 µM) | 0.125 (≈ 0.204 µM) | >4 | 0.063 (≈ 0.103 µM) | 0.063 (≈ 0.103 µM) | 0.125 (≈ 0.204 µM) | 0.125 (≈ 0.204 µM) | >4 | 2 | 0.125 (≈ 0.204 µM) | >4 | 0.031 (≈ 0.0506 µM) | 0.125 (≈ 0.204 µM) | >4 | 0.063 (≈ 0.103 µM) | 0.125 (≈ 0.204 µM) | >1 | Ratio (Staphylococcus aureus [25]): 4; Ratio (Streptococcus pneumoniae [16]): 2 |
| C=C[C@]1(C)C[C@@H](OC(=O)CSc2cc(=O)oc3ccc([N+](=O)[O-])cc23)[C@]2(C)[C@H](C)CC[C@]3(CCC(=O)[C@H]32)[C@@H](C)[C@@H]1O | 0.125 (≈ 0.214 µM) | >4 | 0.063 (≈ 0.108 µM) | 0.063 (≈ 0.108 µM) | 0.125 (≈ 0.214 µM) | >4 | 0.031 (≈ 0.0531 µM) | 0.031 (≈ 0.0531 µM) | 0.125 (≈ 0.214 µM) | 0.063 (≈ 0.108 µM) | 2 | 2 | 0.063 (≈ 0.108 µM) | >4 | 0.031 (≈ 0.0531 µM) | 0.063 (≈ 0.108 µM) | 1 | 0.25 (≈ 0.428 µM) | 0.031 (≈ 0.0531 µM) | 2 | Ratio (Staphylococcus aureus [19]): 4 |
| C=C[C@]1(C)C[C@@H](OC(=O)CSc2cc(=O)oc3cc(F)ccc23)[C@]2(C)[C@H](C)CC[C@]3(CCC(=O)[C@H]32)[C@@H](C)[C@@H]1O | 0.063 (≈ 0.113 µM) | 2 | 0.125 (≈ 0.225 µM) | 0.063 (≈ 0.113 µM) | 0.063 (≈ 0.113 µM) | >4 | 0.031 (≈ 0.0557 µM) | 0.031 (≈ 0.0557 µM) | 0.031 (≈ 0.0557 µM) | 0.063 (≈ 0.113 µM) | 1 | 1 | 0.031 (≈ 0.0557 µM) | 4 | 0.031 (≈ 0.0557 µM) | 0.063 (≈ 0.113 µM) | 1 | 0.125 (≈ 0.225 µM) | 0.031 (≈ 0.0557 µM) | 2 | Ratio (Staphylococcus aureus [6]): 2; Ratio (Streptococcus pneumoniae [16]): 4 |
| C=C[C@]1(C)C[C@@H](OC(=O)CSCCOc2cc(=O)oc3ccccc23)[C@]2(C)[C@H](C)CC[C@]3(CCC(=O)[C@H]32)[C@@H](C)[C@@H]1O | 0.063 (≈ 0.108 µM) | >4 | 0.125 (≈ 0.214 µM) | 0.125 (≈ 0.214 µM) | 0.125 (≈ 0.214 µM) | >4 | 0.063 (≈ 0.108 µM) | 0.063 (≈ 0.108 µM) | 0.125 (≈ 0.214 µM) | 0.25 (≈ 0.429 µM) | >4 | 2 | 0.25 (≈ 0.429 µM) | >4 | 0.031 (≈ 0.0532 µM) | 0.25 (≈ 0.429 µM) | 2 | 0.25 (≈ 0.429 µM) | 0.125 (≈ 0.214 µM) | 2 | Ratio (Staphylococcus aureus [6]): 1; Ratio (Staphylococcus aureus [19]): 2 |
| C=C[C@]1(C)C[C@@H](OC(=O)CSc2cc(=O)oc3cc(Cl)ccc23)[C@]2(C)[C@H](C)CC[C@]3(CCC(=O)[C@H]32)[C@@H](C)[C@@H]1O | 0.125 (≈ 0.218 µM) | 4 | 0.125 (≈ 0.218 µM) | 0.125 (≈ 0.218 µM) | 0.063 (≈ 0.11 µM) | >4 | 0.031 (≈ 0.0541 µM) | 0.031 (≈ 0.0541 µM) | 0.063 (≈ 0.11 µM) | 0.063 (≈ 0.11 µM) | 2 | 2 | 0.063 (≈ 0.11 µM) | 4 | 0.031 (≈ 0.0541 µM) | 0.25 (≈ 0.436 µM) | >4 | 0.125 (≈ 0.218 µM) | 0.031 (≈ 0.0541 µM) | 2 | Ratio (Staphylococcus aureus [25]): >4; Ratio (Staphylococcus aureus [6]): >4; Ratio (Staphylococcus aureus [10]): >4; Ratio (Staphylococcus aureus [19]): >4 |
| C=C[C@]1(C)C[C@@H](OC(=O)CSc2cc(=O)oc3ccccc23)[C@]2(C)[C@H](C)CC[C@]3(CCC(=O)[C@H]32)[C@@H](C)[C@@H]1O | 0.25 (≈ 0.464 µM) | >4 | 0.125 (≈ 0.232 µM) | 0.125 (≈ 0.232 µM) | 0.031 (≈ 0.0575 µM) | >4 | 0.031 (≈ 0.0575 µM) | 0.031 (≈ 0.0575 µM) | 0.125 (≈ 0.232 µM) | 0.063 (≈ 0.117 µM) | 1 | 4 | 0.125 (≈ 0.232 µM) | >4 | 0.016 (≈ 0.0297 µM) | 0.125 (≈ 0.232 µM) | >4 | 0.125 (≈ 0.232 µM) | 0.031 (≈ 0.0575 µM) | 2 | Ratio (Staphylococcus aureus [25]): 2; Ratio (Staphylococcus aureus [6]): 2; Ratio (Streptococcus pneumoniae [16]): 2 |

Source: ChEMBL document CHEMBL6078666, “Discovery of Novel Coumarin Pleuromutilin Derivatives as Potent Anti-MRSA Agents” (J Med Chem, 2024)
